Results from the supplement of paper PMC10307832.

What was measured:
Assay in all cases: relative viability (nuclei count vs DMSO), 5 days (fraction); higher = more cells survive
[1] = compound: CN1CCC(CC1)OC2=CC(=C(C=C2)NC3=NC=C4C(=N3)N(C(=O)N4C)C5CCCC5)OC [AZ3146] + COc1cc2c(Oc3ccc(NC(=O)C4(C(=O)Nc5ccc(F)cc5)CC4)cc3F)ccnc2cc1OCCCN1CCOCC1 [Foretinib] (partner 0.25 µM)
Outline: (§1)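 Medians of duplicate plates are given as relative viability. That measure is the nuclei count in treated wells divided by the count in vehicle wells. Counts were taken on 4× images of lung cancer cell lines in 1536-well plates, 5 days after pin-tool dosing the day after seeding with one drug alone or a fixed anchor-drug dose plus five library-drug doses (not always all listed) in √10 steps.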

[2] = compound: CCOC(=O)CCNc1cc(N2CCc3ccccc3CC2)nc(-c2ccccn2)n1 [GSK-J4] + C[C@]1(O)C[C@@H](c2nc(-c3ccc4ccc(-c5ccccc5)nc4c3)c3c(N)nccn32)C1 [Linsitinib] (partner 1 µM)
Outline: as §1

[3] = compound: CN1CCC(CC1)OC2=CC(=C(C=C2)NC3=NC=C4C(=N3)N(C(=O)N4C)C5CCCC5)OC [AZ3146] + Cc1nc(NC(=O)N2CCC[C@H]2C(N)=O)sc1-c1ccnc(C(C)(C)C(F)(F)F)c1 [Alpelisib] (partner 2 µM)
Outline: as §1

[4] = compound: CCOC(=O)CCNc1cc(N2CCc3ccccc3CC2)nc(-c2ccccn2)n1 [GSK-J4] + Cc1cc(Nc2cc(N3CCN(C)CC3)nc(Sc3ccc(NC(=O)C4CC4)cc3)n2)n[nH]1 [Tozasertib] (partner 0.1 µM)
Outline: as §1

Cell Line: UMC-11
- relative viability ([1]; first compound 0.08 µM): 0.959
- relative viability ([1]; first compound 0.253 µM): 1.04
- relative viability ([1]; first compound 0.8 µM): 1.11
- relative viability ([1]; first compound 2.53 µM): 0.813
- relative viability ([1]; first compound 8 µM): 0.261
- relative viability ([2]; first compound 0.5 µM): 0.97
- relative viability ([2]; first compound 1.581 µM): 0.967
- relative viability ([2]; first compound 5 µM): 1.02
- relative viability ([2]; first compound 15.81 µM): 0.983
- relative viability ([2]; first compound 50 µM): 0.572
- relative viability ([3]; first compound 0.08 µM): 1.08
- relative viability ([3]; first compound 0.253 µM): 0.98
- relative viability ([3]; first compound 0.8 µM): 1.11
- relative viability ([3]; first compound 2.53 µM): 0.861
- relative viability ([3]; first compound 8 µM): 0.296
- relative viability ([4]; first compound 0.5 µM): 0.189
- relative viability ([4]; first compound 15.81 µM): 0.176
- relative viability ([4]; first compound 50 µM): 0.17
